# Source: patent publication US8426202B2, “Cell culture medium” (Cellca GmbH, priority 2005, dated 2013)
# “And” between values parts separate entries of the source, which are not always exact repeats. Identical values can stand only once. Like-named read-outs stand apart in the source and are kept apart here.
# Tests used:
# [1] = tested on: CHO cell line that expresses an antibody; settings: fed-batch, glutamine-free basal and feed media, substance 0.5-1 g/l
# Excerpt: (§1) A CHO cell line that expresses an antibody was used for the experiments.
# This is a serum-free, protein-free nutrient medium. It is a ready-made, sterile-filtered nutrient medium.
# After 1-4 days the cells were supplemented with a feed medium, i.e. the process was switched to fed-batch mode. Feed took place at regular intervals. In fed-batch experiments, a protein-free and serum-free feed medium from the company HyQ (R05.2 supplement, Cat. No.: SH30584.04, Lot No.: APF21457G) was used.
# All substances (chemicals) used according to the invention were obtained from the company Sigma and stock solutions were prepared from them. From the stock solutions, the substances were put at the desired final concentration in culture tubes. The various culture tubes prepared in this way were finally inoculated with the antibody-producing CHO-clone at a target inoculation cell concentration (1-3×10^5/ml). For this, the corresponding amount of inoculum cells was calculated and the required amount of inoculum cell suspension was centrifuged. […] In this way the desired inoculation cell concentration was adjusted in the cell suspension being investigated. The cell suspension thus prepared was proportioned in the culture tubes, which were provided with the substances according to the invention beforehand. The culture tubes were incubated at 37° C., and 8% CO2 atmosphere, with shaking. The culture tubes were cultivated for 8-11 days in the batch mode or in the fed-batch mode. Samples for offline measurement of the variables were taken from the culture vessels at regular intervals, for example daily or on every third day. The metabolic variables and cell concentrations of the samples were measured. Cell concentration and cell vitality were measured with a CeDex instrument. The metabolic variables (glucose, lactate, glutamine and ammonium) were determined with an analyzer (BioProfile 100).
# (§2) The following final concentrations of the substances according to the invention were established in a nutrient medium after inoculation:
# The substances according to the invention were tested under fed-batch conditions. […] The feed medium used was from the company HyQ (R05.2 supplement, Cat. No.: SH30584.04, Lot No.: APF21457G). The feed medium was glutamine-free (Table 4).
# [2] = tested on: CHO cell line that expresses an antibody; experiment: Batch experiment with the substances according to the invention (Example 1); assay type: cell-based, Chinese hamster; settings: batch mode, substance 0.5-1 g/l, basal medium glucose 4.7 g/l, glutamine […]
# [3] = tested on: CHO cell line that expresses an antibody; settings: fed-batch, basal medium 4 mM glutamine, feed with 3 g/l Ala-Gln and 3 g/l Gly-Gln, substance 0.5-1 g/l
# Experimental: as §1
# The experiments were carried out either in batch mode or in fed-batch mode. When the process was carried out in fed-batch mode, the process was first started in batch mode in the above-mentioned basal medium and cells were cultivated in this manner for 1-4 days. After 1-4 days the cells were supplemented with a feed medium, i.e. the process was switched to fed-batch mode. Feed took place at regular intervals. In fed-batch experiments, a protein-free and serum-free feed medium from the company HyQ (R05.2 supplement, Cat. No.: SH30584.04, Lot No.: APF21457G) was used.
# From the stock solutions, the substances were put at the desired final concentration in culture tubes. The various culture tubes prepared in this way were finally inoculated with the antibody-producing CHO-clone at a target inoculation cell concentration (1-3×10^5/ml). For this, the corresponding amount of inoculum cells was calculated and the required amount of inoculum cell suspension was centrifuged. […] In this way the desired inoculation cell concentration was adjusted in the cell suspension being investigated. The cell suspension thus prepared was proportioned in the culture tubes, which were provided with the substances according to the invention beforehand. The culture tubes were incubated at 37° C., and 8% CO2 atmosphere, with shaking. The culture tubes were cultivated for 8-11 days in the batch mode or in the fed-batch mode. Samples for offline measurement of the variables were taken from the culture vessels at regular intervals, for example daily or on every third day. The metabolic variables and cell concentrations of the samples were measured. Cell concentration and cell vitality were measured with a CeDex instrument. The metabolic variables (glucose, lactate, glutamine and ammonium) were determined with an analyzer (BioProfile 100).
# as §2
# The substances according to the invention were tested under fed-batch conditions. […] The feed medium used was from the company HyQ (R05.2 supplement, Cat. No.: SH30584.04, Lot No.: APF21457G). 3 g/l alanyl-glutamine (Ala-Gin) and 3 g/l glycyl-glutamine (Gly-Gln) were added to the feed medium.
# [4] = tested on: CHO cell line that expresses an antibody; settings: fed-batch; substance 1 g/l; supernatant, ELISA; absolute value of the control set at 100%
# Experimental: A CHO cell line that expresses an antibody was used for the experiments. The product concentration (antibody concentration) in the cell supernatant was determined by ELISA.
# From selected samples, the product concentration (antibody concentration) in the supernatant was determined by ELISA (Table 3)
# [5] = tested on: CHO cell line that expresses an antibody; experiment: Fed-batch experiment with the substances according to the invention (Example 2, Table 2); assay type: cell-based, Chinese hamster; design: Viabil.: concentration or dose not given beside the values
# Excerpt: Feed took place at regular intervals.
smiles,measurement,setting,value
CC(O)C(=O)[O-].[Na+] (stereo not shown) [Sodium lactate],Sp. Gluc cons.,[1]; day 0,93
same,Sp. NH4 prod,[1]; day 0,98 % of control
same,TCD,[1]; day 0,100 % of control
same,VCD,[1]; day 0,100 % of control
same,Viabil.,[1]; day 0,94%
same,Sp. Gluc cons.,[1]; day 3,66
same,Sp. Lactate prod.,[1]; day 3,72 % of control
same,Sp. NH4 prod,[1]; day 3,63 % of control
same,TCD,[1]; day 3,140 % of control
same,VCD,[1]; day 3,148 % of control
same,Viabil.,[1]; day 3,94%
same,Sp. Gluc cons.,[1]; day 5,74
same,Sp. Lactate prod.,[1]; day 5,66 % of control
same,Sp. NH4 prod,[1]; day 5,72 % of control
same,TCD,[1]; day 5,128 % of control
same,VCD,[1]; day 5,136 % of control
same,Viabil.,[1]; day 5,97%
same,Sp. Gluc cons.,[1]; day 7,62
same,Sp. Lactate prod.,[1]; day 7,57 % of control
same,Sp. NH4 prod,[1]; day 7,66 % of control
same,TCD,[1]; day 7,136 % of control
same,VCD,[1]; day 7,147 % of control
same,Viabil.,[1]; day 7,95%
same,Sp. Gluc cons.,[1]; day 9,71
same,Sp. Lactate prod.,[1]; day 9,65 % of control
same,Sp. NH4 prod,[1]; day 9,73 % of control
same,TCD,[1]; day 9,131 % of control
same,VCD,[1]; day 9,133 % of control
same,Viabil.,[1]; day 9,95%
same,Gln,[2]; day 0,1.53 mM
same,Glucose,[2]; day 0,4.69 g/L
same,Lactate,[2]; day 0,1 g/L
same,NH4,[2]; day 0,1.22 mM
same,Specific Glutamin consumption (Gln/VCD),[2]; day 0,1.49
same,Specific ammonia production (NH4/VCD),[2]; day 0,1.18
same,Specific glucose consumption (Gluc/VCD),[2]; day 0,4.55
same,Specific lactate production (Lac/VCD),[2]; day 0,0.97
same,Total Cell Density TCD,[2]; day 0,1.07 E5/ml
same,Viabil.,[2]; day 0,96%
same,Viable Cell Density (VCD),[2]; day 0,1.03 E5/ml
same,Gln,[2]; day 3,1.12 mM
same,Glucose,[2]; day 3,4.44 g/L
same,Lactate,[2]; day 3,1.15 g/L
same,NH4,[2]; day 3,1.65 mM
same,Specific Glutamin consumption (Gln/VCD),[2]; day 3,0.19
same,Specific ammonia production (NH4/VCD),[2]; day 3,0.28
same,Specific glucose consumption (Gluc/VCD),[2]; day 3,0.74
same,Specific lactate production (Lac/VCD),[2]; day 3,0.19
same,Total Cell Density TCD,[2]; day 3,6 E5/ml
same,Viabil.,[2]; day 3,100%
same,Viable Cell Density (VCD),[2]; day 3,6 E5/ml
same,Gln,[2]; day 6,0.31 mM
same,Glucose,[2]; day 6,2.82 g/L
same,Lactate,[2]; day 6,1.49 g/L
same,NH4,[2]; day 6,2.07 mM
same,Specific Glutamin consumption (Gln/VCD),[2]; day 6,0.01
same,Specific ammonia production (NH4/VCD),[2]; day 6,0.05
same,Specific glucose consumption (Gluc/VCD),[2]; day 6,0.07
same,Specific lactate production (Lac/VCD),[2]; day 6,0.04
same,Total Cell Density TCD,[2]; day 6,41 E5/ml
same,Viabil.,[2]; day 6,99%
same,Viable Cell Density (VCD),[2]; day 6,40.6 E5/ml
same,Gln,[2]; day 8,0.35 mM
same,Glucose,[2]; day 8,1.79 g/L
same,Lactate,[2]; day 8,1.47 g/L
same,NH4,[2]; day 8,2.63 mM
same,Specific Glutamin consumption (Gln/VCD),[2]; day 8,0.02
same,Specific ammonia production (NH4/VCD),[2]; day 8,0.12
same,Specific glucose consumption (Gluc/VCD),[2]; day 8,0.08
same,Specific lactate production (Lac/VCD),[2]; day 8,0.07
same,Total Cell Density TCD,[2]; day 8,23.7 E5/ml
same,Viabil.,[2]; day 8,90%
same,Viable Cell Density (VCD),[2]; day 8,21.3 E5/ml
same,Gln,[2]; day 11,0.5 mM
same,Glucose,[2]; day 11,0.55 g/L
same,Lactate,[2]; day 11,1.04 g/L
same,NH4,[2]; day 11,3.12 mM
same,Specific Glutamin consumption (Gln/VCD),[2]; day 11,0.04
same,Specific ammonia production (NH4/VCD),[2]; day 11,0.27
same,Specific glucose consumption (Gluc/VCD),[2]; day 11,0.05
same,Specific lactate production (Lac/VCD),[2]; day 11,0.09
same,Total Cell Density TCD,[2]; day 11,24.5 E5/ml
same,Viabil.,[2]; day 11,47%
same,Viable Cell Density (VCD),[2]; day 11,11.4 E5/ml
same,Total Cell Density TCD,[3]; day 0,1.1 E5/ml
same,Viabil.,[3]; day 0,96%
same,Viable Cell Density (VCD),[3]; day 0,1.0 E5/ml
same,Total Cell Density TCD,[3]; day 3,7.9 E5/ml
same,Viabil.,[3]; day 3,96%
same,Viable Cell Density (VCD),[3]; day 3,7.6 E5/ml
same,Total Cell Density TCD,[3]; day 5,45.2 E5/ml
same,Viabil.,[3]; day 5,96%
same,Viable Cell Density (VCD),[3]; day 5,43.3 E5/ml
same,Total Cell Density TCD,[3]; day 7,41.1 E5/ml
same,Viabil.,[3]; day 7,83%
same,Viable Cell Density (VCD),[3]; day 7,34.3 E5/ml
same,Total Cell Density TCD,[3]; day 9,34.7 E5/ml
same,Viabil.,[3]; day 9,73%
same,Viable Cell Density (VCD),[3]; day 9,25.2 E5/ml
same,Antibody concentration,[4],124%
same,Total Cell Density TCD,"[5]; day 0, fed-batch",1.5 E5/ml
same,Viabil.,"[5]; day 0, fed-batch",91%
same,Viable Cell Density (VCD),"[5]; day 0, fed-batch",1.37 E5/ml
same,Total Cell Density TCD,"[5]; day 2, fed-batch",4.6 E5/ml and 4 E5/ml
same,Viabil.,"[5]; day 2, fed-batch",98% and 95%
same,Viable Cell Density (VCD),"[5]; day 2, fed-batch",4.5 E5/ml and 3.8 E5/ml
same,Total Cell Density TCD,"[5]; day 5, fed-batch",13.1 E5/ml and 14.3 E5/ml
same,Viabil.,"[5]; day 5, fed-batch",98%
same,Viable Cell Density (VCD),"[5]; day 5, fed-batch",12.8 E5/ml and 14 E5/ml
same,Total Cell Density TCD,"[5]; day 8, fed-batch",52.4 E5/ml and 54.7 E5/ml
same,Viabil.,"[5]; day 8, fed-batch",96% and 95%
same,Viable Cell Density (VCD),"[5]; day 8, fed-batch",50.2 E5/ml and 52 E5/ml
